In the test the target is T1, Ba/F3-FL-TYK2-P760L cells (Homo sapiens, UniProt P29597, P760L, cells depend on it).
T1 construct: BaF3-FL-T2P760L (nM)
The experiment in a line: Anti-proliferative assay, Ba/F3-FL-TYK2-P760L cells (Cell-Titer Glo). Format: cell-based. The note with it: 72 h, read-out: BaF3-FL-T2P760L IC50. The essentials:
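Ba/F3 cells made IL-3-independent by TEL-fused or full-length mutant JAK-family kinases, seeded at 2000/well and dosed after 24 h with 9 three-fold dilutions topping at 20 μM. Viability after 72 h at 37 °C, 5% CO2 by Cell-Titer Glo ATP luminescence.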

Structures are written as SMILES.

The text below walks through data of patent publication US20250115597A1, “TYK2 INHIBITORS AND COMPOSITIONS AND METHODS THEREOF” (LYNK PHARMACEUTICALS CO. LTD., priority 2021, published 2025).

T1 sequence (P29597 whole entry P760L): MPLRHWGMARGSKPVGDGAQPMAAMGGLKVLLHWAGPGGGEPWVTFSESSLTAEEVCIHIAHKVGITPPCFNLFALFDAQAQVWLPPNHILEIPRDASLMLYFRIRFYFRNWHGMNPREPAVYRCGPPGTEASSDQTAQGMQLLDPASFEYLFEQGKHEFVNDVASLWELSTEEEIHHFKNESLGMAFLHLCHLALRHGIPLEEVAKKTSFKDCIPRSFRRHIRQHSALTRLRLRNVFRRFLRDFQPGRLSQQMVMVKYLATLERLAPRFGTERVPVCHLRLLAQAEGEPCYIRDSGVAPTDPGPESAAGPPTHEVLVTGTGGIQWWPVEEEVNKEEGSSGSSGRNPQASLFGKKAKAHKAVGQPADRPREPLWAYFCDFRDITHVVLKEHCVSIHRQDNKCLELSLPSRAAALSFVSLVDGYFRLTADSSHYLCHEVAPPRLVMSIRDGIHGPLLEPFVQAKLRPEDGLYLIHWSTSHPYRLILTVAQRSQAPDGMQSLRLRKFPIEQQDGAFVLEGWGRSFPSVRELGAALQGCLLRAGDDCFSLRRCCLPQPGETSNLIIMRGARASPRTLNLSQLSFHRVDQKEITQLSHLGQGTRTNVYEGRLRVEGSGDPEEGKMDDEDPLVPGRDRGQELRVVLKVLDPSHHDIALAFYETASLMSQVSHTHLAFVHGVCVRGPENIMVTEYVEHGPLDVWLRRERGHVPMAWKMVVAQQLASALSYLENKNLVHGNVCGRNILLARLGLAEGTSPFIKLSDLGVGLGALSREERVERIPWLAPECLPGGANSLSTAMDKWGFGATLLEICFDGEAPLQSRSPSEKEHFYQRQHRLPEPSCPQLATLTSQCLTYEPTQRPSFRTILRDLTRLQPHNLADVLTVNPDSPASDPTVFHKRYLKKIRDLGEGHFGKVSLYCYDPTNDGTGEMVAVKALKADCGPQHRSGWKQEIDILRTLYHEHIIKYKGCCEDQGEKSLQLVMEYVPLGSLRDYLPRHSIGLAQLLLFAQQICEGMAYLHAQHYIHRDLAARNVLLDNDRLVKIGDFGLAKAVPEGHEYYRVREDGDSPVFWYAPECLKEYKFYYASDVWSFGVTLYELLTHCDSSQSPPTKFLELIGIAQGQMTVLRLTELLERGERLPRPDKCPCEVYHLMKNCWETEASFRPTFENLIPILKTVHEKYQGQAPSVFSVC

For the compound `[2H]C([2H])([2H])NC(=O)c1cnc(Nc2ccn(C3CC3)n2)nc1Nc1cccc(-c2ncn(C)n2)c1OC` [Example 146, 2-((1-Cyclopropyl-1H-pyrazol-3-yl)amino)-4-((2-methoxy-3-(1-methyl-1H-1,2,4-triazol-3-yl)phenyl)amino)-N-(methyl-d3)pyrimidine-5-carboxamide], the GI50 worked out at 832 nM.
The figure for `CCCn1ncc2ccc(Nc3cc(NC(=O)C4CC4)ncc3C(=O)NC)c(OC)c21` [Example 51, 6-(Cyclopropanecarboxamido)-4-((7-methoxy-1-propyl-1H-indazol-6-yl)amino)-N-methylnicotinamide] is 80.2 nM.
On to `[2H]C([2H])([2H])NC(=O)c1cnc(Nc2ccc(F)cc2)nc1Nc1cn(C)c2ccn(C)c(=O)c12` [Example 4, 4-((1,5-Dimethyl-4-oxo-4,5-dihydro-1H-pyrrolo[3,2-c]pyridin-3-yl)amino)-2-((4-fluorophenyl)amino)-N-(methyl-d3)pyrimidine-5-carboxamide], for which the GI50 is 548 nM.
The value for `CNC(=O)c1cnc(NC(=O)C2CC2)cc1Nc1cn(CCOC)c2ccn([C@H](C)C(F)(F)F)c(=O)c12` (single isomer, unassigned) [Example 201A, (R*)-6-(Cyclopropanecarboxamido)-4-((1-(2-methoxyethyl)-4-oxo-5-(1,1,1-trifluoropropan-2-yl)-4,5-dihydro-1H-pyrrolo[3,2-c]pyridin-3-yl)amino)-N-(methyl-d3)nicotinamide] was 241 nM; that for `[2H]C([2H])([2H])NC(=O)c1cnc(Nc2cc(F)ccn2)cc1Nc1cn(C)c2c(Cl)cn(CC)c(=O)c12` [Example 162, 4-((7-Chloro-5-ethyl-1-methyl-4-oxo-4,5-dihydro-1H-pyrrolo[3,2-c]pyridin-3-yl)amino)-6-((4-fluoropyridin-2-yl)amino)-N-(methyl-d3)nicotinamide] was 25.9 nM.
For the compound `[2H]C([2H])([2H])NC(=O)c1cnc(NC(=O)C2CC2)cc1Nc1cn(CCOC2CC2)c2ccn(CC)c(=O)c12` [Example 221, 6-(Cyclopropanecarboxamido)-4-((1-(2-cyclopropoxyethyl)-5-ethyl-4-oxo-4,5-dihydro-1H-pyrrolo[3,2-c]pyridin-3-yl)amino)-N-(methyl-d3)nicotinamide], the GI50 worked out at 294 nM.
The value for `CCc1nc2c(Nc3cc(NC(=O)C4CC4)ncc3C(=O)NC)cn(C)c2c(=O)n1C` [Example 247, 6-(Cyclopropanecarboxamido)-4-((2-ethyl-3,5-dimethyl-4-oxo-4,5-dihydro-3H-pyrrolo[3,2-d]pyrimidin-7-yl)amino)-N-methylnicotinamide] was over 5000 nM; that for `[2H]C([2H])([2H])NC(=O)c1cnc(NC(=O)C2CC2)cc1Nc1cn(C)c2ccn([C@@H]3CCOC3)c(=O)c12` [Example 114, (R)-6-(cyclopropanecarboxamido)-N-(methyl-d3)-4-((1-methyl-4-oxo-5-(tetrahydrofuran-3-yl)-4,5-dihydro-1H-pyrrolo[3,2-c]pyridin-3-yl)amino)nicotinamide] was 1100 nM.
The figure for `[2H]C([2H])([2H])NC(=O)c1cnc(NC(=O)C2CC2)cc1Nc1ccc2onc(CC)c2c1OC` [Example 233, 6-(Cyclopropanecarboxamido)-4-((3-ethyl-4-methoxybenzo[d]isoxazol-5-yl)amino)-N-(methyl-d3)nicotinamide] is 3270 nM.
`[2H]C([2H])([2H])NC(=O)c1cnc(NC(=O)C2CC2)cc1Nc1csc2cnn(CCOCC)c(=O)c12` [Example 183, 6-(Cyclopropanecarboxamido)-4-((5-(2-ethoxyethyl)-4-oxo-4,5-dihydrothieno[2,3-d]pyridazin-3-yl)amino)-N-(methyl-d3)nicotinamide]: the GI50 stood at 710 nM.
The value for `[2H]C([2H])([2H])NC(=O)c1cnc(NC(=O)C2CC2)cc1Nc1csc2cnn(C(C)C(F)(F)F)c(=O)c12` (single isomer, unassigned) [Example 185B, (S*)-6-(Cyclopropanecarboxamido)-N-(methyl-d3)-4-((4-oxo-5-(1,1,1-trifluoropropan-2-yl)-4,5-dihydrothieno[2,3-d]pyridazin-3-yl)amino)nicotinamide] was 912 nM; that for `[2H]C([2H])([2H])NC(=O)c1cnc(Nc2ccc(F)cn2)cc1Nc1cn(C)c2c(Cl)cn(C([2H])([2H])[2H])c(=O)c12` [Example 170, 4-((7-Chloro-1-methyl-5-(methyl-d3)-4-oxo-4,5-dihydro-1H-pyrrolo[3,2-c]pyridin-3-yl)amino)-6-((5-fluoropyridin-2-yl)amino)-N-(methyl-d3)nicotinamide] was 27.6 nM.
The figure for `[2H]C([2H])([2H])NC(=O)c1cnc(Nc2cnn(C3CCOCC3)c2)nc1Nc1cccc(-c2ncn(C)n2)c1OC` [Example 30, 4-((2-Methoxy-3-(1-methyl-1H-1,2,4-triazol-3-yl)phenyl)amino)-N-(methyl-d3)-2-((1-(tetrahydro-2H-pyran-4-yl)-1H-pyrazol-4-yl)amino)pyrimidine-5-carboxamide] is 199 nM.
The value for `[2H]C([2H])([2H])NC(=O)c1cnc(Nc2cc(C)c(F)cn2)nc1Nc1cccc(-c2ncn(C)n2)c1OC` [Example 59, 2-((5-Fluoro-4-methylpyridin-2-yl)amino)-4-((2-methoxy-3-(1-methyl-1H-1,2,4-triazol-3-yl)phenyl)amino)-N-(methyl-d3)pyrimidine-5-carboxamide] was 1930 nM; that for `[2H]C([2H])([2H])NC(=O)c1cnc(NC(=O)C2(C(F)(F)F)CC2)cc1Nc1cn(C)c2ccn(CC)c(=O)c12` [Example 104, 4-[(5-Ethyl-1-methyl-4-oxo-pyrrolo[3,2-c]pyridin-3-yl)amino]-N-(methyl-d3)-6-[[1-(trifluoromethyl)cyclopropanecarbonyl]amino]pyridine-3-carboxamide] was 2420 nM; that for `CNC(=O)c1nnc(Nc2ccc(F)cn2)cc1Nc1cccc(OC2CCOCC2)c1OC` [Example 25, 6-((5-Fluoropyridin-2-yl)amino)-4-((2-methoxy-3-((tetrahydro-2H-pyran-4-yl)oxy)phenyl)amino)-N-methylpyridazine-3-carboxamide] was 7820 nM.
As to `[2H]C([2H])([2H])NC(=O)c1nnc2cc1Nc1cc(cc(-c3ncc(F)cn3)c1OC)COCc1nc(ccc1F)N2` [Example 80, 18-Fluoro-11-(5-fluoropyrimidin-2-yl)-10-methoxy-N-(methyl-d3)-15-oxa-2,4,5,8,21-pentaazatetracyclo[15.3.1.1^{3,7}.1^{9,13}]tricosa-1(20),3,5,7(23),9(22),10,12,17(21),18-nonaene-6-carboxamide], the GI50 came out at 213 nM.
For `[2H]C([2H])([2H])NC(=O)c1cnc2cc1Nc1cc(cc(-c3ncn(C(C)C)n3)c1OC)COCc1cccc(n1)N2` [Example 84, 10-Methoxy-N-(methyl-d3)-11-[1-(propan-2-yl)-1H-1,2,4-triazol-3-yl]-15-oxa-2,4,8,21-tetraazatetracyclo[15.3.1.1^{3,7}.1^{9,13}]tricosa-1(21),3,5,7(23),9(22),10,12,17,19-nonaene-6-carboxamide], the GI50 was 676 nM.
The value for `[2H]C([2H])([2H])NC(=O)c1cnc(NC(=O)C2CC2)cc1Nc1ccc2cnn(C(C)C)c2c1OC` [Example 126, 6-(Cyclopropanecarboxamido)-4-((1-isopropyl-7-methoxy-1H-indazol-6-yl)amino)-N-(methyl-d3)nicotinamide] was 522 nM.
